Data published in patent US10273234B2, “Compounds that are S1P modulating agents and/or ATX modulating agents” (BIOGEN MA INC., priority 2012, dated 2019).

Biological target: human S1P4 (Homo sapiens (Human), UniProt O95977)
Assay: Calcium mobilization (calcium flux) assay, antagonist format, S1P4
Format: cell-based
Conditions: recombinant CHEM cells expressing human S1P4; FLIPR Calcium 4 dye; stimulated with EC80 of reference agonist
Protocol: Compounds that are not specific for a particular S1P receptor can cause undesirable side effects. Accordingly, compounds are tested to identify those that are specific. Accordingly, the test compounds are tested in a calcium mobilization assay/S1P receptor activity assay. The procedure is essentially as described in Davis et al. (2005) Journal of Biological Chemistry, vol. 280, pp. 9833-9841, which is incorporated by reference in its entirety with the following modifications. Calcium mobilization assays are performed in recombinant CHEM cells expressing human S1P1, S1P2, S1P3, S1P4, or S1P5 purchased from Millipore (Billerica, Mass.). To detect free intracellular calcium, S1P1, S1P2, S1P3, S1P4, or S1P5 cells are loaded with FLIPR Calcium 4 dye from Molecular Devices (Sunnyvale, Calif.). Cells are imaged for calcium mobilization using a FLIPR^TETRA equipped with a 96-well dispense head. […]
Assay was read for 180 seconds using the FLIPR^TETRA (This assay run added sample compounds and reference agonist to respective wells). […]
Using the EC80 values determined during the agonist assay, stimulated all pre-incubated sample compound and reference antagonist (if applicable) wells with EC80 of reference agonist. Read for 180 seconds using the FLIPR^TETRA (This assay added reference agonist to respective wells—then fluorescence measurements were collected to calculate percentage inhibition values).

Chain of human S1P4 (O95977 whole entry): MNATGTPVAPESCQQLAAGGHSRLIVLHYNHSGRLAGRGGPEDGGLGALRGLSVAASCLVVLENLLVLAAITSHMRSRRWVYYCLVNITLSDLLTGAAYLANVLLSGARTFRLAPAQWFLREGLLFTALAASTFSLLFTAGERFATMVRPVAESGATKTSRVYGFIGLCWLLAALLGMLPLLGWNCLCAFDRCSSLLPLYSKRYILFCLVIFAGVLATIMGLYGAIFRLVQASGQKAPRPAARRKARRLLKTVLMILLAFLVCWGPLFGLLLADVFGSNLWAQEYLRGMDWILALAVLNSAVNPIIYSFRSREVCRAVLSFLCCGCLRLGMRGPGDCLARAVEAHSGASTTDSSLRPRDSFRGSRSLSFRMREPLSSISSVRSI

In the case of CC(C)(C)[C@H]1CC[C@H](Oc2cccc3c(CN4CCC(C(=O)O)CC4)cccc23)CC1 [Example 30, 1-((5-((trans-4-(tert-butyl)cyclohexyl)oxy)naphthalen-1-yl)methyl)piperidine-4-carboxylic acid], the IC50 is reported as ≤ 250 nM.
